Values quoted from earlier work in article PMC9851200, “Multiparameter phenotypic screening for endogenous TFEB and TFE3 translocation identifies novel chemical series modulating lysosome function” (Autophagy, 2022).

Legend:
Parameters in all cases: method as in original PKIS2 published data
[1] = target: kinases (KINOMEscan panel) (Homo sapiens, UniProt O94921); conditions: Published KINOMEscan; ref original PKIS2 published data; cited from earlier work
[2] = target: kinases (KINOMEscan panel) (Homo sapiens, UniProt P08922); conditions: kinase ROS1; Published KINOMEscan; ref original PKIS2 published data; cited from earlier work
Chain of kinases (KINOMEscan panel) (Homo sapiens, UniProt P08922) (P08922 28-2347): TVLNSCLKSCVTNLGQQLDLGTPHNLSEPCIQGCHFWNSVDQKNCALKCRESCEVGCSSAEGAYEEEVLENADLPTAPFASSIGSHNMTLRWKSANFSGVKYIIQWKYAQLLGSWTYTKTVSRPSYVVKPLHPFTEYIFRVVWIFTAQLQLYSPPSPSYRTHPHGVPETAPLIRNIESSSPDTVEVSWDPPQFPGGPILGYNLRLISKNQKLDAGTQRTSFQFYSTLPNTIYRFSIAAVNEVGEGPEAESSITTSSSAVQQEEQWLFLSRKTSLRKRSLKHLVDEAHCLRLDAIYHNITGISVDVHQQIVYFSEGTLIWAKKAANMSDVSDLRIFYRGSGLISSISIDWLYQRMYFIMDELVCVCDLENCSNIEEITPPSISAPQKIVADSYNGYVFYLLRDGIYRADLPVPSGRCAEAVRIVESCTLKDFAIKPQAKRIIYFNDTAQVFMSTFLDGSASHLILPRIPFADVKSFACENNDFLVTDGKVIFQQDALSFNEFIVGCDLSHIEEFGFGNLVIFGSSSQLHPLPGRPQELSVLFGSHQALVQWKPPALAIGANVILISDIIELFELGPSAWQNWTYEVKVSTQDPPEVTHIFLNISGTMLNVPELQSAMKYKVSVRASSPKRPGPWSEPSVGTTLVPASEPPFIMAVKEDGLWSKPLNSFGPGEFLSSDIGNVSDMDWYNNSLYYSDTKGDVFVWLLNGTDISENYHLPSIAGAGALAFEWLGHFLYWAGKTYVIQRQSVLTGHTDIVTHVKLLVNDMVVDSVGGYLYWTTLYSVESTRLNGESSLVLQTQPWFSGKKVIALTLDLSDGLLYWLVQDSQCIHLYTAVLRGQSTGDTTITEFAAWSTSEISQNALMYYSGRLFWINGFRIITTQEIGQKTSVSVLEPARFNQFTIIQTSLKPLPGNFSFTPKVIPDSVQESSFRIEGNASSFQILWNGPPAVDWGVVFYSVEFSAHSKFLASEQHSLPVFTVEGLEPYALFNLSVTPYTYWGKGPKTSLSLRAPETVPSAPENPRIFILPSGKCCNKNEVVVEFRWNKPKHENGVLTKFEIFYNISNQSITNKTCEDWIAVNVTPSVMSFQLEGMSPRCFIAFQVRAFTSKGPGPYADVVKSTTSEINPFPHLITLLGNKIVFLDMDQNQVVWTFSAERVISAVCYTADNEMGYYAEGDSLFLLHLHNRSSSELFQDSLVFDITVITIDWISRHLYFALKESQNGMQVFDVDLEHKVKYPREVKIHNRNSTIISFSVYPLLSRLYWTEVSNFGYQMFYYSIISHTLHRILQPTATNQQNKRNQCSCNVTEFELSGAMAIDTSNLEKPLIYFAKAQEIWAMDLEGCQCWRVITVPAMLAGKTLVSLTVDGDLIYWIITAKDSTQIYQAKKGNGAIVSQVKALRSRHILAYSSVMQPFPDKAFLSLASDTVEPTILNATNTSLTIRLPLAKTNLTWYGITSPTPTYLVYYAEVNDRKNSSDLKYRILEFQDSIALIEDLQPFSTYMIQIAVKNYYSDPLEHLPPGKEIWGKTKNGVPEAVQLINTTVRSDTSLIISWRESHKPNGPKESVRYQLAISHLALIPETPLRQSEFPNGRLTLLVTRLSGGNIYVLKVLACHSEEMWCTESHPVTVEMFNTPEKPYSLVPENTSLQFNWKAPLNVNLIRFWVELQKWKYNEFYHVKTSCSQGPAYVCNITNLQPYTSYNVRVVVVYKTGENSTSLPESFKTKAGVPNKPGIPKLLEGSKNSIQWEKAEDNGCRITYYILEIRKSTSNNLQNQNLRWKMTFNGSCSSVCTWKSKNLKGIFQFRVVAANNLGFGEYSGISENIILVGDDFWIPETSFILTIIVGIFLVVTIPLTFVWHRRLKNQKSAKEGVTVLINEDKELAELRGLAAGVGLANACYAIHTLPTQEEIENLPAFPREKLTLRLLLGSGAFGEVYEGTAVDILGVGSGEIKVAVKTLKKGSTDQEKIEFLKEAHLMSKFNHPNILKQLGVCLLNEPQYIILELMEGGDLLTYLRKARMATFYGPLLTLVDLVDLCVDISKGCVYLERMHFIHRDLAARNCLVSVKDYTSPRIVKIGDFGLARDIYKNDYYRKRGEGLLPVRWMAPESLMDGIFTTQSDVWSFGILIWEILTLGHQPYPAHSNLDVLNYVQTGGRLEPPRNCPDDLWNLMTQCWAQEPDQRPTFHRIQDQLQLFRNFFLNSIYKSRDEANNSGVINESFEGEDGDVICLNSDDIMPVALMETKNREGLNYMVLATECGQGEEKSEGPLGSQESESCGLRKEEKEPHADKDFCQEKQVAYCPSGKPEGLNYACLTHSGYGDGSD

[3] = target: T1, kinases (KINOMEscan panel) (Homo sapiens, UniProt P25098); conditions: Published KINOMEscan; ref original PKIS2 published data; cited from earlier work
T1 sequence (P25098 1-689): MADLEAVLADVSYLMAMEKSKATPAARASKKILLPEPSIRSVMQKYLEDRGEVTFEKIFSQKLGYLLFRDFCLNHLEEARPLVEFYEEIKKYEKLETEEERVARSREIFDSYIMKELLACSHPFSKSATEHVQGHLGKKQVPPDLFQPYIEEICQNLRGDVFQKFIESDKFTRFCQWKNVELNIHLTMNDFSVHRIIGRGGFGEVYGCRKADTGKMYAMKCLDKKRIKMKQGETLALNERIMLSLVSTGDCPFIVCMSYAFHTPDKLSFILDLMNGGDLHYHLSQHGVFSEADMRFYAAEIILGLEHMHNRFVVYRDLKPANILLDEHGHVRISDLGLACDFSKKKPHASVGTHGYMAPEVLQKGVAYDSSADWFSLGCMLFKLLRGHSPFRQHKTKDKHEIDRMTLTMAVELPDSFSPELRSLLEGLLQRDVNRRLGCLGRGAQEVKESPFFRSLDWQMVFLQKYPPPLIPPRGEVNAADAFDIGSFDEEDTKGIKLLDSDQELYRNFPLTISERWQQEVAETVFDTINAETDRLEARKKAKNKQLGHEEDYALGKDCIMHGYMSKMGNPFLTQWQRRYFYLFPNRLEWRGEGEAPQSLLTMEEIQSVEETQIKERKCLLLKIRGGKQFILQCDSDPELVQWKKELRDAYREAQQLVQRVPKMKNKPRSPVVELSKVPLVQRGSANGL

[4] = target: kinases (KINOMEscan panel) (Homo sapiens, UniProt P27037); conditions: ACVR2A; Published KINOMEscan; ref original PKIS2 published data; cited from earlier work
Chain of kinases (KINOMEscan panel) (Homo sapiens, UniProt P27037) (P27037 20-513): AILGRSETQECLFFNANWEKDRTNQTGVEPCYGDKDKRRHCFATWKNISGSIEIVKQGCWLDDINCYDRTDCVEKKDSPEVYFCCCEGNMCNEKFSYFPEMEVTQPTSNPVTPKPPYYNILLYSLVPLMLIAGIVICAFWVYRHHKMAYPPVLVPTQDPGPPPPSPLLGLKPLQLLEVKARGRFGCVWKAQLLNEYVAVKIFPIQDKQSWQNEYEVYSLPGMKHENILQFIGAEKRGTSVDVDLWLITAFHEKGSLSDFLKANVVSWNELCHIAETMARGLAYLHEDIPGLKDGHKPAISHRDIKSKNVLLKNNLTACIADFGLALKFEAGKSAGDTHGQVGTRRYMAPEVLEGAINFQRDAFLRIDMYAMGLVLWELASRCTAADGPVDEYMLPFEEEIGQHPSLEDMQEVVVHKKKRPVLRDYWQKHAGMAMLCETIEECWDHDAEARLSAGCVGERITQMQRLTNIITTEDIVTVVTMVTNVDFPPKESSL

[5] = target: kinases (KINOMEscan panel) (Homo sapiens, UniProt P27448); conditions: MARK3; Published KINOMEscan; ref original PKIS2 published data; cited from earlier work
Chain of kinases (KINOMEscan panel) (Homo sapiens, UniProt P27448) (P27448 whole entry): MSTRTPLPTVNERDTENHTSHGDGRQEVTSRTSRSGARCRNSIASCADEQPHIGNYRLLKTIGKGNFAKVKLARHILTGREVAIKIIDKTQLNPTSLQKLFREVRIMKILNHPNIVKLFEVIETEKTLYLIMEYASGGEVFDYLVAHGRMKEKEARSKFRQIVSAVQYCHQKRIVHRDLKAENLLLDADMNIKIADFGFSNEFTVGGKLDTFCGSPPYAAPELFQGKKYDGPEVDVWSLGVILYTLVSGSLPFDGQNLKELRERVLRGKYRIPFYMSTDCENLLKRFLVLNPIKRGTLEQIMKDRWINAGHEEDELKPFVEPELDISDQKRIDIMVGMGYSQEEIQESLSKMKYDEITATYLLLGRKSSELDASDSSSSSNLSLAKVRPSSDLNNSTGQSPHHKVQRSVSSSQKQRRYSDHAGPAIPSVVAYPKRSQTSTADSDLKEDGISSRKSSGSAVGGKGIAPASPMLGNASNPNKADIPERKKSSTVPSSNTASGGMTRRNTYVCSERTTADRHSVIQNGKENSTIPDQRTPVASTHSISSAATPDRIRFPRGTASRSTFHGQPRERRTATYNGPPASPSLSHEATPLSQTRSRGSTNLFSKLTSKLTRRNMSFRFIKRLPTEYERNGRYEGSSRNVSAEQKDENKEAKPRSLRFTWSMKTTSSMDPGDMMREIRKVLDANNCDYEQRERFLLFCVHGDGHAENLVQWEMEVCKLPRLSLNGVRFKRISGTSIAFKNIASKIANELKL

[6] = target: kinases (KINOMEscan panel) (Homo sapiens, UniProt P49840); conditions: GSK3A; Published KINOMEscan; ref original PKIS2 published data; cited from earlier work
Chain of kinases (KINOMEscan panel) (Homo sapiens, UniProt P49840) (P49840 whole entry): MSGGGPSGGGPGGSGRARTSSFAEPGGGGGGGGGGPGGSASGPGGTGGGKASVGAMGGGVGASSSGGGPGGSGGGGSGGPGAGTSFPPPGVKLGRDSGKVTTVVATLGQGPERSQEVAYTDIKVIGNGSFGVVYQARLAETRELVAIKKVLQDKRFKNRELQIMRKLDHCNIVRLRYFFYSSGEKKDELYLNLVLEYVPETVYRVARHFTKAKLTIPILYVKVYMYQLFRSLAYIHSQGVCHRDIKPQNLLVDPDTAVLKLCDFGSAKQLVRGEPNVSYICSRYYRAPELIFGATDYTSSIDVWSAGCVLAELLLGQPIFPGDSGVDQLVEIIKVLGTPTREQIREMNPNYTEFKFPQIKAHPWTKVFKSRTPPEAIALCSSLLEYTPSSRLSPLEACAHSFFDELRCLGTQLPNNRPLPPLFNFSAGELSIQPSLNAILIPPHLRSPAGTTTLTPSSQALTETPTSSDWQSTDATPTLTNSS

[7] = target: T2, kinases (KINOMEscan panel) (Homo sapiens, UniProt P54760); conditions: EPHB4; Published KINOMEscan; ref original PKIS2 published data; cited from earlier work
T2 sequence (P54760 16-987): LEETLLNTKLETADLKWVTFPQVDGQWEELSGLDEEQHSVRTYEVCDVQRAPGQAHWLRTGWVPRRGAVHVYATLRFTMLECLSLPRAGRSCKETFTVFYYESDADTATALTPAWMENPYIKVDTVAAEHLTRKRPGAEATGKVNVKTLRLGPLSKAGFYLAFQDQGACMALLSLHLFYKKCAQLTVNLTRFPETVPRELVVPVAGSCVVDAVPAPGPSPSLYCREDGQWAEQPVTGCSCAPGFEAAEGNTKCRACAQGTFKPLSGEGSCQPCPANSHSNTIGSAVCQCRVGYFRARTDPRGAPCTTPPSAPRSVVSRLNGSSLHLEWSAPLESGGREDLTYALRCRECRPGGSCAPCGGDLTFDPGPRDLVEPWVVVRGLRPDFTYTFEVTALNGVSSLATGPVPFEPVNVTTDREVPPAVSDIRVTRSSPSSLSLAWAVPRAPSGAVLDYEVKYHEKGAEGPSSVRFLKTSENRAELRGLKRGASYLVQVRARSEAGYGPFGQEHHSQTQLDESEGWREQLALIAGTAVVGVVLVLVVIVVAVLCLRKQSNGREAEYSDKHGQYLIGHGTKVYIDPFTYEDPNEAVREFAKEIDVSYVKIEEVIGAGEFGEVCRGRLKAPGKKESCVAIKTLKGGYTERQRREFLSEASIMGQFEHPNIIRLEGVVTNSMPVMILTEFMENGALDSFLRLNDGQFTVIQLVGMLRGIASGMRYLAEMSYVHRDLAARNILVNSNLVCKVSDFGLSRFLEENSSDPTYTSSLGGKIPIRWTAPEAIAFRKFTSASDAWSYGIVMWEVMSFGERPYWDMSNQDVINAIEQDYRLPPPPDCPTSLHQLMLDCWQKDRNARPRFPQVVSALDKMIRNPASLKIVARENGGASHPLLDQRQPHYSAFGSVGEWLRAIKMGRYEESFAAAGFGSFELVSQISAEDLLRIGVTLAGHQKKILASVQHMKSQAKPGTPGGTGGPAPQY

[8] = target: kinases (KINOMEscan panel) (Homo sapiens, UniProt Q00537); conditions: kinase CDK17; Published KINOMEscan; ref original PKIS2 published data; cited from earlier work
Chain of kinases (KINOMEscan panel) (Homo sapiens, UniProt Q00537) (Q00537 whole entry): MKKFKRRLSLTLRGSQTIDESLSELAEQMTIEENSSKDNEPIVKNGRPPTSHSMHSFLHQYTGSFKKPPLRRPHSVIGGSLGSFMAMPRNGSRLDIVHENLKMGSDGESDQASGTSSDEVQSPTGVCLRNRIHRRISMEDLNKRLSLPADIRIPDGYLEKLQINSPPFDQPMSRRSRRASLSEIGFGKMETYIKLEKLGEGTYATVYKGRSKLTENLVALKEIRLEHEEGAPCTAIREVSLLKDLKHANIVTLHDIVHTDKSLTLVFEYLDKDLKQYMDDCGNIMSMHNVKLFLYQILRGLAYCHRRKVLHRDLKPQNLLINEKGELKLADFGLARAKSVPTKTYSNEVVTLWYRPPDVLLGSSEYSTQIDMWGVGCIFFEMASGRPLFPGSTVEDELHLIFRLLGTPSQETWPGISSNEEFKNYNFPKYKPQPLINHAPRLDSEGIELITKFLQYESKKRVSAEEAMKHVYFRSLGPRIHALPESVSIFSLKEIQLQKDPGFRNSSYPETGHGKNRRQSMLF

[9] = target: T3, kinases (KINOMEscan panel) (Homo sapiens, UniProt Q86YV6); conditions: kinase MYLK4; Published KINOMEscan; ref original PKIS2 published data; cited from earlier work
T3 sequence (Q86YV6 1-388): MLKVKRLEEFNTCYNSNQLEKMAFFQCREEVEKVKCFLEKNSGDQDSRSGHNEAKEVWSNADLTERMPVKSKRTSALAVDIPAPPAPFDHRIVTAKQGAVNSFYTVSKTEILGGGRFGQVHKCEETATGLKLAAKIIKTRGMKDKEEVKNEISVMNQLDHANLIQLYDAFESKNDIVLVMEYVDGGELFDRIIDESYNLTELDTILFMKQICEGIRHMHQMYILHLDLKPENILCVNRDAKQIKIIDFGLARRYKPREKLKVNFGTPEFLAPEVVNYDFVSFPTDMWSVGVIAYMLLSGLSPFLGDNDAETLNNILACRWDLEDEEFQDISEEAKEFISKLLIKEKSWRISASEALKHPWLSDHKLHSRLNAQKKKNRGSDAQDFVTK

Chain of kinases (KINOMEscan panel) (Homo sapiens, UniProt O94921) (O94921 whole entry): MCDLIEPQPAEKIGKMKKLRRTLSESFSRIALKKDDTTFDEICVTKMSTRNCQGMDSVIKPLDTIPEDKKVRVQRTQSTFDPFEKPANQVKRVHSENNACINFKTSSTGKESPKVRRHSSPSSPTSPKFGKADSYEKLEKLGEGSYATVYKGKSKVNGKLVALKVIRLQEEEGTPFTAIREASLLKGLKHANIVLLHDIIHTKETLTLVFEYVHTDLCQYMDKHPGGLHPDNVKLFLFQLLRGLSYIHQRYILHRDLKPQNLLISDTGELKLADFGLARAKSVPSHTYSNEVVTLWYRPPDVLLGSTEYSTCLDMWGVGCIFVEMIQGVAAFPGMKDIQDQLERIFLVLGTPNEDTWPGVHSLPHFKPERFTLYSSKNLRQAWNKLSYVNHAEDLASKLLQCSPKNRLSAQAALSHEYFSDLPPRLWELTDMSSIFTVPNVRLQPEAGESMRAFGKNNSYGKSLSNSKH

Cc1cccc(-c2nc(Nc3ccncc3)c3ccccc3n2)n1 [NK215]
KINOMEscan CDK14 [1]: 0 | KINOMEscan ROS1 [2]: 0 | KINOMEscan GRK2 [3]: 0 | KINOMEscan ACVR2A [4]: 24 | KINOMEscan MARK3 [5]: 32 | KINOMEscan GSK3A [6]: 4 | KINOMEscan EPHB4 [7]: 26 | KINOMEscan CDK17 [8]: 10 | KINOMEscan MYLK4 [9]: 7
